B1: U582403: tomato catechol O-methyltransferase from S. lycopersicum, SEQ ID NO: 3 (protein)
chain: MGSTANIQLATQSEDEERNCTYAMQLLSSSVLPFVLHSTIQLDVFDILAKDKAATKLSALEIVSHMPNCKNPDAATMLDRMLYVLASYSLLDCSVVEEGNGVTERRYGLSRVGKFFVRDEDGASMGPLLALLQDKVFINSWFELKDAVLEGGVPFDRVHGVHAFEYPKLDPKFNDVFNQAMINHTTVVMKRILENYKGFENLKTLVDVGGGLGVNLKMITSKYPTIKGTNFDLPHVVQHAPSYPGVDHVGGDMFESVPQGDAIFMKWILHDWSDGHCLKLLKNCHKALPDNGKVIVVEANLPVKPDTDTTVVGVSQCDLIMMAQNPGGKERSEQEFRALASEAGFKGVNLICCVCNFWVMEFYK
modifications: S. lycopersicum

Assays:
[1] = test system: SIOMT1; assay: Substrate specificity assay of purified recombinant SIOMT1 with [14C]-AdoMet; type: biochemical, Solanum lycopersicum; conditions: 15 μM substrate, 30 min, 25°, products extracted with hexanes, scintillation counting
Procedure: FIG. 2 illustrates the chemical structure and relative activity of SIOMT1 on catechol and substrates with similar structure to catechol. Relative activity was determined by incubating purified SIOMT with excess amounts of [C^14]-AdoMet and […] of substrate. Products were extracted with hexanes and measured with a scintillation counter. Relative activity is expressed as a percentage of activity on catechol. 1=catechol; 2=guaiacol; 3=salicylic acid; 4=benzoic acid; 5=orcinol; 6=caffeic acid.
For substrate specificity assays, 5 μL purified enzyme was assayed at 25° in a 100 μL reaction containing 50 mM Tris-HCl, pH 7.5, 100 mM KCl, 2.8 mM BME, 15 μM substrate, 10 mM SAM, 0.4 mM [methyl-^14C] AdoMet (specific activity 50.4 mCi mmol^−1; Amersham). Substrates were diluted in 50% EtOH. Assays were done in triplicate, including boiled enzyme controls. After 30 min at 25° the reactions were stopped by adding equal volumes of hexanes. The methylated substrate was extracted on a vortex mixer for 15 sec and centrifuging at 13 200 g for 5 min. 50 μL of the organic layer was counted for 10 min in 3 ml Ready Gel Scintillation Fluid (Beckman Coulter, http://www.beckmancoulter.com). Counts for the boiled enzyme controls were subtracted from the sample counts, and activity for catechol was normalized to 100%. For the Km of catechol, procedures were the same as above, except for catechol concentrations. Concentrations used were: 0, 1, 5, 15, 25, and 50 μM.
To further test the specificity of SGN-U582403 (SIOMT1) for catechol, the activity of SIOMT1 on substrates with similar structure to catechol was measured. Purified protein was incubated with [^14C]-AdoMet and the following potential substrates: catechol, guaiacol, salicylic acid, benzoic acid, orcinol, or caffeic acid. Products were extracted with hexanes and measured with a scintillation counter.

[2] = test system: tomato fruit pericarp discs; assay: Catechol feeding of tomato fruit pericarp discs, guaiacol by GC/MS; type: cell-based, Solanum lycopersicum cv. Flora-Dade; conditions: 10 μl of 1 M catechol per disc
Procedure: FIGS. 6A and 6B illustrate results of catechol feeding of tomato discs. Tomato fruit discs were made from the pericarp of Flora-Dade and SIOMT1OE ripe fruit and treated with water or catechol. Volatiles of the discs were collected after 5 h and analyzed using GC-MS. FIG. 6A illustrates the spectrum showing the guaiacol peak at 20.65 minutes. […] The table in FIG. 6B summarizes the differences in guaiacol production between Flora-Dade and SIOMT1OE.
Tomato discs were cut from pericarp tissue of ripe WT and SIOMT1 over-expressing fruit using a size 10 borer. A hundred discs were used for each sample treatment. Discs were placed in petri dishes and an X was cut in the top of each. 10 μl of either water or 1 M catechol dissolved in water was pipetted into each disc. Cover were place on petri dish and disc were left to incubate for 5 hr. Disc were then place in glass tube and volatiles were extracted as previously described. Guaiacol was quantified on GC/MS using a guaiacol standard curve.
Rather, low concentrations of catechol might limit the production of guaiacol in SIOMT1 plants. Thus, to further test this, catechol was fed to fruit pericarp discs of Flora-Dade (WT) and SIOMT1 over-expressing lines. Volatiles were collected after incubation for […]. Both WT and SIOMT1 discs produced increased guaiacol when fed catechol. […]

[3] = Initial screen: catechol added to E. coli cultures expressing candidate OMT, guaiacol production measured; type: cell-based, Solanum lycopersicum cv. M82; conditions: induced protein in E. coli cultures
Procedure: Potential S. lycopersicum catechol OMT candidates were selected by identification of genes with homology to previously characterized catechol and caffeic acid OMTs (FIG. 1). Five candidate genes were selected, SGN-U582403, SGN-U565623, SGN-U319245, SGN-U575022, and SGN-U321686. Full length cDNAs were synthesized from S. lycopersicum cv. M82 ripe fruit RNA. Candidate genes were cloned into pET160 plasmids for expression in E. coli. Initial screens were performed by adding catechol directly to bacterial cultures expressing induced protein and measuring guaiacol production.

| Molecule | activity of SIOMT1 on substrate relative to catechol [1] | guaiacol produced by catechol-fed discs relative to the unfed control ([2]; SIOMT1 over-expressing discs) [times] | guaiacol produced by catechol-fed discs relative to the unfed control ([2]; WT (Flora-Dade) discs) [times] | conversion of catechol to guaiacol by candidate OMT [3] |
| --- | --- | --- | --- | --- |
| Cc1cc(O)cc(O)c1 [orcinol] | slight activity | – | – | – |
| O=C(O)/C=C/c1ccc(O)c(O)c1 [caffeic acid] | slight activity | – | – | – |
| Oc1ccccc1O [catechol] | preferentially methylated | 52 | 36 | – |
| B1 | – | – | – | converted catechol to guaiacol |
